Results taken from US10954219B2, “1,3-benzodioxole derivative” (DAIICHI SANKYO COMPANY, LIMITED, priority 2014, dated 2021).
Structures can show the parent of a compound that is named as a salt.

Experiments:
[1] = test system: Intracellular H3K27me3 in HCT116 cells; experiment: Intracellular H3K27me3 inhibitory activity evaluation; format: cell-based; settings: Homo sapiens, HCT-116, 72 h, 3 days, AlphaLISA, read-out: Test Example 3 H3K27me3 inhibition (HCT116) IC50
PRC2-EZH2 (WT EZH2) = target: T1, PRC2-EZH2 (WT EZH2) (Homo sapiens, UniProt Q15910); experiment: EZH2 methyltransferase inhibitory activity evaluation; format: biochemical; settings: PRC2-EZH2, biotin-H3 peptide, 3H-SAM, 2 hours
T1 construct: made in house
Method: EZH2 Methyltransferase Inhibitory Activity Evaluation
(§1) Then, the residual radioactivity was measured using TopCount NXT HTS (PerkinElmer, Inc., model C384V01).

PRC2-EZH1 (WT EZH1) = PRC2-EZH1 (WT EZH1) (Homo sapiens, UniProt Q92800); experiment: EZH1 methyltransferase inhibitory activity evaluation
Sequence of PRC2-EZH1 (WT EZH1) (Q92800 whole entry): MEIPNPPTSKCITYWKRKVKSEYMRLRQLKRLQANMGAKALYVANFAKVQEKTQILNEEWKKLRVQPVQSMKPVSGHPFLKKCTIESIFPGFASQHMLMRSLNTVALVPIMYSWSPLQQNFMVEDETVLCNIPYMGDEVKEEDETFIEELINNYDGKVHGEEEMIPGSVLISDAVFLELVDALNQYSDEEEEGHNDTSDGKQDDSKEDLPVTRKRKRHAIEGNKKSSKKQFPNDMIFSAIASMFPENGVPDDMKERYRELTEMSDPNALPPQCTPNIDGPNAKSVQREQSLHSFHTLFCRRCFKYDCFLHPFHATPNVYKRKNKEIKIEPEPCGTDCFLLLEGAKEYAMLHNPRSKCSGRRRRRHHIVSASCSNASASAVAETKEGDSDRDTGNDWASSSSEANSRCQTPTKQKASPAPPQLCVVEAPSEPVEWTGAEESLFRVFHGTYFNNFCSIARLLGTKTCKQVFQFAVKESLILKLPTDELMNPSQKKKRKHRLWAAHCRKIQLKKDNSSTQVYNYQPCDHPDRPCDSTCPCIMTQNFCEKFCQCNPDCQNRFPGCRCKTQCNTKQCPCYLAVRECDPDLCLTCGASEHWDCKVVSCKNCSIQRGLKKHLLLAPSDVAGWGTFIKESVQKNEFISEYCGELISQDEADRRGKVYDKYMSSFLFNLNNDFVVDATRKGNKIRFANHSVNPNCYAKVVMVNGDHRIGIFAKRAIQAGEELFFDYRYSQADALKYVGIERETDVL
Sequence of PRC2-EZH1 (WT EZH1) (O75530 whole entry partner): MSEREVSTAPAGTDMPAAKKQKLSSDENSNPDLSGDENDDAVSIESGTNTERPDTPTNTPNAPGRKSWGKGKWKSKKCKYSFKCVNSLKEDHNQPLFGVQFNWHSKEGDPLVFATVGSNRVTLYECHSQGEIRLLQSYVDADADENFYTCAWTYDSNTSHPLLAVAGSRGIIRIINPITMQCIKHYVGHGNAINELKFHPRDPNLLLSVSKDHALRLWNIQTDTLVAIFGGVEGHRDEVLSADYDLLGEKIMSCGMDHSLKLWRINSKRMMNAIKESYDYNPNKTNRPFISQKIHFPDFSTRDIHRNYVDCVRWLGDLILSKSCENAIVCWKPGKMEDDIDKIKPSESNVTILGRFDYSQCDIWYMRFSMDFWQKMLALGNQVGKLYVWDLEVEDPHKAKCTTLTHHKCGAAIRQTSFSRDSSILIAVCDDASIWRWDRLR
Sequence of PRC2-EZH1 (WT EZH1) (Q15022 whole entry partner): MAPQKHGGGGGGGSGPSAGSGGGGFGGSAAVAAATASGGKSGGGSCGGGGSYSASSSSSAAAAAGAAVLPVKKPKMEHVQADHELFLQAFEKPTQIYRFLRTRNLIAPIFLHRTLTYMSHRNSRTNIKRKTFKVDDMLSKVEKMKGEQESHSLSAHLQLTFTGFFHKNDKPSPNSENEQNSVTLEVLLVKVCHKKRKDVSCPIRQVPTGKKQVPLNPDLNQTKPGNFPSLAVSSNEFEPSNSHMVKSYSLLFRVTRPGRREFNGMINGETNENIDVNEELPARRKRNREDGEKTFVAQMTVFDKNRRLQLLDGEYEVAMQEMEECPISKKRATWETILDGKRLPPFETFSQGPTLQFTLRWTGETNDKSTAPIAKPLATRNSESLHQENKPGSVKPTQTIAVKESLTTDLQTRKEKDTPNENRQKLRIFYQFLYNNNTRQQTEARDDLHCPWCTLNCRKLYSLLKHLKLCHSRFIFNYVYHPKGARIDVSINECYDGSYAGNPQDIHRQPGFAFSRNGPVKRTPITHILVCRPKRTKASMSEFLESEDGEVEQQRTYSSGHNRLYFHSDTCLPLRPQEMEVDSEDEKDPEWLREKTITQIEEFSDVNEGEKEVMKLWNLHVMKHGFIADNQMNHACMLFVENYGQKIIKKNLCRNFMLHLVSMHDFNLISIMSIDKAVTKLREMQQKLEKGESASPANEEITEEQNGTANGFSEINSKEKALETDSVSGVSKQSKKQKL
Sequence of PRC2-EZH1 (WT EZH1) (Q09028 whole entry partner): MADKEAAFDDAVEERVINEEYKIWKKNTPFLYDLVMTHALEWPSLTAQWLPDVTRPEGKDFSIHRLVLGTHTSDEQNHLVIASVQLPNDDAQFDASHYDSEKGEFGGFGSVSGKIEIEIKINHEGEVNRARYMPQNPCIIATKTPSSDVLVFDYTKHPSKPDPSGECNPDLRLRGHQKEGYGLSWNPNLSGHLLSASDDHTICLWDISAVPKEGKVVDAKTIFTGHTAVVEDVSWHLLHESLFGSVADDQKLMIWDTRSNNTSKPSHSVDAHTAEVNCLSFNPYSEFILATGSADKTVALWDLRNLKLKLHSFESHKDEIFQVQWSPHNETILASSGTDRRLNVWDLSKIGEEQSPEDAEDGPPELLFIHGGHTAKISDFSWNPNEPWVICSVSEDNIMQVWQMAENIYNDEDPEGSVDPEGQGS
Sequence of PRC2-EZH1 (WT EZH1) (Q6ZN18 whole entry partner): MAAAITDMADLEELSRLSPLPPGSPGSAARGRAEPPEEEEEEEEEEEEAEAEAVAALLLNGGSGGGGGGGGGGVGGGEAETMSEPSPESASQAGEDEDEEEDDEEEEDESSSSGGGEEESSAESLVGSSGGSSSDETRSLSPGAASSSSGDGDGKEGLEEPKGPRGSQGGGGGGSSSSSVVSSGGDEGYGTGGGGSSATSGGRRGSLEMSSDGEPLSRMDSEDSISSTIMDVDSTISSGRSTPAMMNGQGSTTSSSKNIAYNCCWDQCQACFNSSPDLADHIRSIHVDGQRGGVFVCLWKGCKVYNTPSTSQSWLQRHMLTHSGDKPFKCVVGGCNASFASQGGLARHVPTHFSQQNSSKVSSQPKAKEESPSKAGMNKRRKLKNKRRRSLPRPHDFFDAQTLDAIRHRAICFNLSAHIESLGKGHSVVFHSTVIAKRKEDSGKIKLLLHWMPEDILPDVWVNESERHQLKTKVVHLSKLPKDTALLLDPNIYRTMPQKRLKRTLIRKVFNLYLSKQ
Method: EZH1 Methyltransferase Inhibitory Activity Evaluation
as §1

T1 sequence (Q15910 whole entry): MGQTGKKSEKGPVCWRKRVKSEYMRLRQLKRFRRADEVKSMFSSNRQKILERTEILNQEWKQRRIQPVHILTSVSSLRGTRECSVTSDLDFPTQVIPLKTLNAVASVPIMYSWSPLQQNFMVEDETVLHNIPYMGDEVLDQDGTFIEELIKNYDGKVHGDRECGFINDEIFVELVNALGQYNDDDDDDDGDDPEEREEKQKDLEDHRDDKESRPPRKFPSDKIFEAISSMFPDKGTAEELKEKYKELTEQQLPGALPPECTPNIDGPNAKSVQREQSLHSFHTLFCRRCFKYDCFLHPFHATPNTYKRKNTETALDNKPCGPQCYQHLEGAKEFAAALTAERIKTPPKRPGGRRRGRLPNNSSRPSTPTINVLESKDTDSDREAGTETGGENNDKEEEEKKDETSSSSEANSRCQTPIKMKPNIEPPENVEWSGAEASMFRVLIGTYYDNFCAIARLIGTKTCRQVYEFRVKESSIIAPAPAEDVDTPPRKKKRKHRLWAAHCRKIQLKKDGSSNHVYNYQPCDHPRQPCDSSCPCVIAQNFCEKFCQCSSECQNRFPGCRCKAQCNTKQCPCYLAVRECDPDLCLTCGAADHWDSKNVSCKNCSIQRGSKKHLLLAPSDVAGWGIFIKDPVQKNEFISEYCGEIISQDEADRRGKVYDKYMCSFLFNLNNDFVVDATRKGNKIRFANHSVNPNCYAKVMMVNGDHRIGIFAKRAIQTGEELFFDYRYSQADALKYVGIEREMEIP
T1 sequence (O75530 whole entry partner): as the sequence (O75530 whole entry partner) above
T1 sequence (Q15022 whole entry partner): as the sequence (Q15022 whole entry partner) above

| Compound | IC50 [1] | IC50 (PRC2-EZH2 (WT EZH2)) | IC50 (PRC2-EZH1 (WT EZH1)) |
| --- | --- | --- | --- |
| Cc1cc(C)c(CNC(=O)c2cc(-c3cccnc3)c3c(c2C)OC(C)([C@H]2CC[C@H](N(C)C)CC2)O3)c(=O)[nH]1 (relative stereo) [Example 64, 2-[trans-4-(Dimethylamino)cyclohexyl]-N-[(4,6-dimethyl-2-oxo-1,2-dihydropyridin-3-yl)methyl]-2,4-dimethyl-7-(3-pyridyl)-1,3-benzodioxole-5-carboxamide] | 6.8 nM | 14 nM | 22 nM |
| Cc1cc(C)c(CNC(=O)c2cc(-c3cnn(C)c3)c3c(c2C)OC(C)([C@H]2CC[C@H](N(C)C)CC2)O3)c(=O)[nH]1 (relative stereo) [Example 65, 2-[trans-4-(Dimethylamino)cyclohexyl]-N-[(4,6-dimethyl-2-oxo-1,2-dihydropyridin-3-yl)methyl]-2,4-dimethyl-7-(1-methylpyrazol-4-yl)-1,3-benzodioxole-5-carboxamide hydrochloride] | 13 nM | 18 nM | 23 nM |
| C=Cc1cc(C(=O)NCc2c(C)cc(C)[nH]c2=O)c(C)c2c1OC(C)([C@H]1CC[C@H](N(C)C)CC1)O2 (relative stereo) [Example 66, 2-[trans-4-(Dimethylamino)cyclohexyl]-N-[(4,6-dimethyl-2-oxo-1,2-dihydropyridin-3-yl)methyl]-2,4-dimethyl-7-vinyl-1,3-benzodioxole-5-carboxamide] | 1.7 nM | 22 nM | 27 nM |
| C#Cc1cc(C(=O)NCc2c(C)cc(C)[nH]c2=O)c(C)c2c1OC(C)([C@H]1CC[C@H](N(C)C)CC1)O2 (relative stereo) [Example 67, 2-[trans-4-(Dimethylamino)cyclohexyl]-N-[(4,6-dimethyl-2-oxo-1,2-dihydropyridin-3-yl)methyl]-7-ethynyl-2,4-dimethyl-1,3-benzodioxole-5-carboxamide] | 1 nM | 19 nM | 17 nM |
| Cc1cc(C)c(CNC(=O)c2cc(C3CC3)c3c(c2C)OC(C)([C@H]2CC[C@H](N(C)C)CC2)O3)c(=O)[nH]1 (relative stereo) [Example 68, 7-Cyclopropyl-2-[trans-4-(dimethylamino)cyclohexyl]-N-[(4,6-dimethyl-2-oxo-1,2-dihydropyridin-3-yl)methyl]-2,4-dimethyl-1,3-benzodioxole-5-carboxamide] | 1.6 nM | 18 nM | 29 nM |
| Cc1cc(C)c(CNC(=O)c2cc(-c3ccnc(N4CCN(C)CC4)c3)c3c(c2C)OC(C)([C@H]2CC[C@H](N(C)C)CC2)O3)c(=O)[nH]1 (relative stereo) [Example 69, 2-[trans-4-(Dimethylamino)cyclohexyl]-N-[(4,6-dimethyl-2-oxo-1,2-dihydropyridin-3-yl)methyl]-2,4-dimethyl-7-[2-(4-methylpiperazin-1-yl)-4-pyridyl]-1,3-benzodioxole-5-carboxamide] | 29 nM | 24 nM | 32 nM |
| Cc1cc(C)c(CNC(=O)c2cc(-c3cncs3)c3c(c2C)OC(C)([C@H]2CC[C@H](N(C)C)CC2)O3)c(=O)[nH]1 (relative stereo) [Example 70, 2-[trans-4-(Dimethylamino)cyclohexyl]-N-[(4,6-dimethyl-2-oxo-1,2-dihydropyridin-3-yl)methyl]-2,4-dimethyl-7-thiazol-5-yl-1,3-benzodioxole-5-carboxamide hydrochloride] | 4.3 nM | 26 nM | 38 nM |
| Cc1cc(C)c(CNC(=O)c2cc(C3=CCN(C)CC3)c3c(c2C)OC(C)([C@H]2CC[C@H](N(C)C)CC2)O3)c(=O)[nH]1 (relative stereo) [Example 71, 2-[trans-4-(Dimethylamino)cyclohexyl]-N-[(4,6-dimethyl-2-oxo-1,2-dihydropyridin-3-yl)methyl]-2,4-dimethyl-7-(1-methyl-3,6-dihydro-2H-pyridin-4-yl)-1,3-benzodioxole-5-carboxamide] | 99 nM | 19 nM | 43 nM |
| CC(=O)c1cc(C(=O)NCc2c(C)cc(C)[nH]c2=O)c(C)c2c1OC(C)([C@H]1CC[C@H](N(C)C)CC1)O2 (relative stereo) [Example 72, 7-Acetyl-2-[trans-4-(dimethylamino)cyclohexyl]-N-[(4,6-dimethyl-2-oxo-1,2-dihydropyridin-3-yl)methyl]-2,4-dimethyl-1,3-benzodioxole-5-carboxamide hydrochloride] | 13 nM | 17 nM | 76 nM |
| CCc1cc(C)[nH]c(=O)c1CNC(=O)c1cc(-c2ccc(N3CCN(CC)CC3)nc2)c2c(c1C)OC(C)([C@H]1CC[C@H](N(C)C)CC1)O2 (relative stereo) [Example 73, 2-[trans-4-(Dimethylamino)cyclohexyl]-N-[(4-ethyl-6-methyl-2-oxo-1,2-dihydropyridin-3-yl)methyl]-7-[6-(4-ethylpiperazin-1-yl)-3-pyridyl]-2,4-dimethyl-1,3-benzodioxole-5-carboxamide hydrochloride] | 6.1 nM | 22 nM | 12 nM |
| CCCc1cc(C)[nH]c(=O)c1CNC(=O)c1cc(-c2ccc(N3CCN(CC)CC3)nc2)c2c(c1C)OC(C)([C@H]1CC[C@H](N(C)C)CC1)O2 (relative stereo) [Example 74, 2-[trans-4-(Dimethylamino)cyclohexyl]-7-[6-(4-ethylpiperazin-1-yl)-3-pyridyl]-2,4-dimethyl-N-[(6-methyl-2-oxo-4-propyl-1,2-dihydropyridin-3-yl)methyl]-1,3-benzodioxole-5-carboxamide] | 23 nM | 29 nM | 13 nM |
| CCc1cc(C)[nH]c(=O)c1CNC(=O)c1cc(-c2cnn(C)c2)c2c(c1C)OC(C)([C@H]1CC[C@H](N(C)C)CC1)O2 (relative stereo) [Example 75, 2-[trans-4-(Dimethylamino)cyclohexyl]-N-[(4-ethyl-6-methyl-2-oxo-1,2-dihydropyridin-3-yl)methyl]-2,4-dimethyl-7-(1-methylpyrazol-4-yl)-1,3-benzodioxole-5-carboxamide hydrochloride] | 11 nM | 26 nM | 21 nM |
| CCc1cc(C(=O)NCc2c(C)cc(C)[nH]c2=O)c(C)c2c1OC(C)([C@H]1CC[C@H](N(C)C)CC1)O2 (relative stereo) [Example 76, 2-[trans-4-(Dimethylamino)cyclohexyl]-N-[(4,6-dimethyl-2-oxo-1,2-dihydropyridin-3-yl)methyl]-7-ethyl-2,4-dimethyl-1,3-benzodioxole-5-carboxamide] | 0.88 nM | 12 nM | 20 nM |
| Cc1cc(C)c(CNC(=O)c2cc(C)c3c(c2C)O[C@@](C)([C@H]2CC[C@H](N(C)C)CC2)O3)c(=O)[nH]1 (single isomer, unassigned) [Example 48] | 0.48 nM | 8 nM | 8.9 nM |
| Cc1cc(C)c(CNC(=O)c2cc(Br)c3c(c2C)OC(C)(C2CCOC2)O3)c(=O)[nH]1 (stereo not drawn) [Example 1, 7-Bromo-N-[(4,6-dimethyl-2-oxo-1,2-dihydropyridin-3-yl)methyl]-2,4-dimethyl-2-(tetrahydrofuran-3-yl)-1,3-benzodioxole-5-carboxamide] | 29 nM | 24 nM | 140 nM |
| Cc1cc(C)c(CNC(=O)c2cc(Br)c3c(c2C)OC(C)(C24CC(N(C)C)(C2)C4)O3)c(=O)[nH]1 (stereo not drawn) [Example 3, 7-Bromo-2-[3-(dimethylamino)-1-bicyclo[1.1.1]pentanyl]-N-[(4,6-dimethyl-2-oxo-1,2-dihydropyridin-3-yl)methyl]-2,4-dimethyl-1,3-benzodioxole-5-carboxamide] | 26 nM | 30 nM | 660 nM |
| Cc1cc(C)c(CNC(=O)c2cc(Br)c3c(c2C)OC(C)(C2CC4(CC(N(C)C)C4)C2)O3)c(=O)[nH]1 (stereo not drawn) [Example 4, 7-Bromo-2-[2-(dimethylamino)spiro[3.3]heptan-6-yl]-N-[(4,6-dimethyl-2-oxo-1,2-dihydropyridin-3-yl)methyl]-2,4-dimethyl-1,3-benzodioxole-5-carboxamide] | 8.3 nM | 25 nM | 130 nM |
| CCN1CC2(CC(C3(C)Oc4c(Br)cc(C(=O)NCc5c(C)cc(C)[nH]c5=O)c(C)c4O3)C2)C1 (stereo not drawn) [Example 5, 7-Bromo-N-[(4,6-dimethyl-2-oxo-1,2-dihydropyridin-3-yl)methyl]-2-(2-ethyl-2-azaspiro[3.3]heptan-6-yl)-2,4-dimethyl-1,3-benzodioxole-5-carboxamide] | 51 nM | 15 nM | 250 nM |
| Cc1cc(C)c(CNC(=O)c2cc(Br)c3c(c2C)OC(C)(C2CCN(C)C2)O3)c(=O)[nH]1 (stereo not drawn) [Example 6, 7-Bromo-N-[(4,6-dimethyl-2-oxo-1,2-dihydropyridin-3-yl)methyl]-2,4-dimethyl-2-(1-methylpyrrolidin-3-yl)-1,3-benzodioxole-5-carboxamide] | 45 nM | 39 nM | 510 nM |
| CCN1CCC([C@@]2(C)Oc3c(Br)cc(C(=O)NCc4c(C)cc(C)[nH]c4=O)c(C)c3O2)CC1 [Example 7, (2R)-7-Bromo-N-[(4,6-dimethyl-2-oxo-1,2-dihydropyridin-3-yl)methyl]-2-(1-ethyl-4-piperidyl)-2,4-dimethyl-1,3-benzodioxole-5-carboxamide] | 8.4 nM | 3.6 nM | 38 nM |
| Cc1cc(C)c(CNC(=O)c2cc(Br)c3c(c2C)O[C@@](C)(C2CCN(C)CC2)O3)c(=O)[nH]1 [Example 8, (2R)-7-Bromo-N-[(4,6-dimethyl-2-oxo-1,2-dihydropyridin-3-yl)methyl]-2,4-dimethyl-2-(1-methyl-4-piperidyl)-1,3-benzodioxole-5-carboxamide] | 6 nM | 16 nM | 97 nM |
